Reference: PubChem BioAssay (NCI)
“And” between values parts separate entries of the source, which are not always exact repeats. Equal values may be shown once.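 Values below derive from 48-hour exposures of cells grown in 96-well plates, with endpoints linearly interpolated between the two concentrations bracketing the appropriate inhibition level. GI50 is the concentration that inhibits growth by half. TGI is the concentration that stops growth completely.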

Columns and labels:
Assay in all cases: inhibition of tumour cell growth, NCI panel, 48 h
[1] = tested on: SF-268 CNS
[2] = tested on: HCT-15 colon
[3] = tested on: SN12C renal
[4] = tested on: NCI-H522 lung
[5] = tested on: TK-10 renal
[6] = tested on: CCRF-CEM leukemia
[7] = tested on: K-562 leukemia
[8] = tested on: NCI-H226 lung

## Cc1cn(Cc2ccccc2CCl)c(=O)n(Cc2ccccc2CCl)c1=O
[1]
  GI50: 2.32 µM
  TGI: 5.99 µM
[2]
  GI50: 1.96 µM
  TGI: 4.43 µM
[3]
  GI50: 2.65 µM
  TGI: 6.97 µM
[4]
  GI50: 1.3 µM
  TGI: 2.94 µM
[5]
  GI50: 2.92 µM
  TGI: 6.53 µM
[6]
  GI50: 1.93 µM
  TGI: 5.5 µM
[7]
  GI50: 3.19 µM
  TGI: 10 µM

## Cc1c(C(N)=O)sc2c1c(=O)n(Cc1ccccc1)c1nnc(S(=O)(=O)CC(=O)Nc3ccc(Cl)cc3)n21
[1]
  GI50: 6.8 µM
  TGI: 27.4 µM
[2]
  GI50: 38.6 µM
  TGI: > 100 µM
[3]
  GI50: 4.67 µM
  TGI: 28.2 µM
[4]
  GI50: 2.53 µM
  TGI: 6.73 µM
[5]
  GI50: 4.38 µM
  TGI: 19.2 µM
[6]
  GI50: 10.9 µM
  TGI: 43.1 µM
[8]
  GI50: 4.83 µM
  TGI: 19.8 µM
[7]
  GI50: 15 µM
  TGI: 55.2 µM

## Cn1c2ccccc2c2[nH]c3ccccc3c(=O)c21
[1]
  TGI: > 100 µM
[2]
  TGI: > 100 µM
[3]
  TGI: > 100 µM
[5]
  TGI: > 100 µM
[6]
  TGI: > 100 µM
[8]
  TGI: > 100 µM
[7]
  TGI: > 100 µM

## COc1ccc(C=C2C(=O)NC(=O)NC2=O)cc1OCc1ccccc1
[1]
  GI50: 29.2 µg/mL
[2]
  GI50: 30.8 µg/mL
[3]
  GI50: 47.6 µg/mL
[8]
  GI50: 49.1 µg/mL
[7]
  GI50: 30.8 µg/mL

## O=C1c2ccn(CCCCN(CCO)CCO)c2C(=O)c2c1c(O)c1ccccc1c2O
[1]
  GI50: 13.7 µM
  TGI: > 63.2 µM
[2]
  GI50: 0.948 µM
  TGI: 2.14 µM
[3]
  GI50: 6.85 µM
  TGI: 25 µM
[4]
  GI50: 9.29 µM
  TGI: > 92.7 µM
[5]
  GI50: 6.66 µM
  TGI: 29.6 µM
[6]
  GI50: 2.07 µM
  TGI: 11.2 µM
[8]
  GI50: 64 µM
  TGI: > 100 µM
[7]
  GI50: 4.41 µM
  TGI: > 100 µM

## COC(=O)Nc1nc2ccc(S(=O)(=O)c3ccc(NC(=O)Nc4cc(C(F)(F)F)ccc4F)cc3)cc2[nH]1
[1]
  GI50: > 25 µM
  TGI: > 25 µM
[2]
  GI50: > 25 µM
  TGI: > 25 µM
[3]
  GI50: > 25 µM
  TGI: > 25 µM
[4]
  GI50: > 25 µM
  TGI: > 25 µM
[5]
  GI50: > 25 µM
  TGI: > 25 µM
[6]
  GI50: > 25 µM
  TGI: > 25 µM
[8]
  GI50: > 25 µM
  TGI: > 25 µM
[7]
  GI50: > 25 µM
  TGI: > 25 µM

## Cc1cc(Cl)ccc1Nc1nc(C(F)(F)F)ccc1C(=O)Nc1cccc(C(F)(F)F)c1
[1]
  GI50: 4.22 µM
  TGI: 16.6 µM
[2]
  GI50: 2.56 µM
  TGI: 7.35 µM
[3]
  GI50: 3.23 µM
  TGI: 11.6 µM
[4]
  GI50: 3.47 µM
  TGI: 13.4 µM
[5]
  GI50: 4.4 µM
  TGI: 21 µM
[6]
  GI50: 3.41 µM
  TGI: 14.7 µM
[8]
  GI50: 4.05 µM
  TGI: 17.6 µM
[7]
  GI50: 2.59 µM
  TGI: 11.2 µM

## CC1=NN(c2ccccc2)C(=O)C1N=Nc1ccc(S(N)(=O)=O)cc1 (stereo not given)
[1]
  TGI: > 100 µM
[2]
  TGI: > 100 µM
[3]
  TGI: > 100 µM
[4]
  TGI: > 100 µM
[5]
  TGI: > 100 µM
[6]
  TGI: > 100 µM
[8]
  TGI: > 100 µM
[7]
  TGI: > 100 µM

## CN(CCCN(C)CCC1CCCCC1)CCC1CCCCC1
[1]
  GI50: 5.14 µM
  TGI: 18.9 µM
[2]
  GI50: 2.02 µM
  TGI: 8.21 µM
[3]
  GI50: 6.49 µM
  TGI: 20.6 µM
[4]
  GI50: 1.77 µM
  TGI: 4.36 µM
[5]
  GI50: 1.62 µM
  TGI: 3.55 µM
[6]
  GI50: 3.03 µM
  TGI: 21.7 µM
[8]
  GI50: 2.57 µM
  TGI: 11.9 µM
[7]
  GI50: 1.97 µM
  TGI: 7.02 µM

## O=C1C=C(OCCCl)C(=O)c2c(O)ccc(O)c21
[1]
  GI50: 3.98 µM
  TGI: 2.6 µM and 15.3 µM
[2]
  GI50: 1.4 µM
  TGI: 0.433 µM and 3.15 µM
[3]
  GI50: 1.58 µM
  TGI: 0.526 µM and 3.03 µM
[4]
  GI50: 1.57 µM
  TGI: 4.44 µM and 3.14 µM
[5]
  GI50: 3 µM
  TGI: 5.55 µM and 6.83 µM
[6]
  GI50: 1.32 µM
  TGI: 3.5 µM
[8]
  TGI: 5.07 µM and 4.64 µM
[7]
  GI50: 1.17 µM
  TGI: 3.11 µM

## O=c1[nH]nc(-c2ccccc2)c2c(-c3ccccc3)onc12
[1]
  GI50: 0.969 µM
  TGI: > 77.8 µM
[2]
  GI50: 0.554 µM
  TGI: > 100 µM
[3]
  GI50: 0.748 µM
  TGI: > 100 µM
[4]
  GI50: 0.648 µM
  TGI: 24.3 µM
[5]
  GI50: 0.999 µM
  TGI: > 100 µM
[6]
  GI50: 3.69 µM
  TGI: > 100 µM
[8]
  GI50: > 21 µM
  TGI: > 100 µM
[7]
  GI50: 0.385 µM
  TGI: > 100 µM

## O=C1NC(c2ccccc2)N=C2Oc3ccccc3C=C12 (stereo not given)
[1]
  TGI: > 84.7 µM
[2]
  TGI: > 100 µM
[3]
  TGI: > 100 µM
[4]
  TGI: > 100 µM
[5]
  TGI: > 100 µM
[6]
  TGI: 2.65 µM
[8]
  TGI: 12.8 µM
[7]
  TGI: > 100 µM

## NCCSC(C[N+](=O)[O-])c1ccccc1Cl (stereo not given)
[1]
  GI50: 2.79 µM
  TGI: 8.53 µM
[2]
  GI50: 2.21 µM
  TGI: 5.97 µM
[3]
  GI50: 7.33 µM
  TGI: 21.9 µM
[4]
  GI50: 24.9 µM
  TGI: > 56.1 µM
[5]
  GI50: 5.59 µM
  TGI: 19 µM
[6]
  GI50: 3.8 µM
  TGI: > 86.7 µM
[8]
  GI50: 2.28 µM
  TGI: 5.55 µM
[7]
  GI50: 2.96 µM
  TGI: > 23.7 µM

## COc1cc(-c2oc3c(OC)c(O)cc(O)c3c(=O)c2OC)ccc1O
[1]
  TGI: > 23.3 µM
[2]
  TGI: > 100 µM
[3]
  TGI: > 100 µM
[4]
  TGI: > 37.2 µM
[5]
  TGI: 69.6 µM
[6]
  TGI: 24.9 µM
[8]
  TGI: 97.2 µM
[7]
  TGI: > 100 µM

## CN(C)C(=S)SCC(N)=O
[1]
  TGI: > 100 µM
[2]
  TGI: > 100 µM
[3]
  TGI: > 100 µM
[4]
  TGI: > 100 µM
[5]
  TGI: > 100 µM
[6]
  TGI: > 100 µM
[8]
  TGI: > 100 µM
[7]
  TGI: > 100 µM

## CN(C)CC1=Nc2cccc3cccc(c23)N1
[1]
  TGI: 33.4 µM
[2]
  TGI: 77.5 µM
[3]
  TGI: 31.8 µM
[5]
  TGI: 32.3 µM
[6]
  TGI: > 100 µM
[8]
  TGI: 37.4 µM
[7]
  TGI: 62.3 µM

## O=CN1N=C(c2ccc(Nc3ccnc4cc(Cl)ccc34)cc2)CC1c1ccc(Cl)cc1 (stereo not given)
[1]
  GI50: 0.847 µM
  TGI: > 100 µM
[2]
  GI50: 0.58 µM
  TGI: > 100 µM
[3]
  GI50: 0.978 µM
  TGI: > 100 µM
[4]
  GI50: 0.386 µM
  TGI: 30.2 µM
[5]
  GI50: 9.57 µM
  TGI: > 100 µM
[8]
  GI50: 4.66 µM
  TGI: > 100 µM

## CC(C)=CCc1cc(C2COc3cc4c(c(O)c3C2=O)C=CC(C)(C)O4)c(O)cc1O (stereo not given)
[1]
  TGI: 30.5 µM
[2]
  TGI: 26.9 µM
[3]
  TGI: 26.3 µM
[4]
  TGI: 25.9 µM
[5]
  TGI: 31.7 µM
[6]
  TGI: 28.7 µM
[7]
  TGI: 10.7 µM

## COc1ccc(CN=C(N)N=C(N)N)cc1OC
[1]
  GI50: 472 µM
  TGI: > 1000 µM
[2]
  GI50: > 1000 µM
  TGI: > 1000 µM
[3]
  GI50: 358 µM
  TGI: > 1000 µM
[4]
  GI50: 714 µM
  TGI: > 1000 µM
[5]
  GI50: > 1000 µM
  TGI: > 1000 µM
[8]
  GI50: 619 µM
  TGI: > 1000 µM
[7]
  GI50: 362 µM
  TGI: > 1000 µM
